In patent US9029325B2, “Amylin analogues and pharmaceutical compositions thereof” (Novo Nordisk A/S, priority 2011, dated 2015):
Read-outs that look alike come from different tables or passages of the source. Starred links: 1 amine or outer side, 2 acyl side, 3 side chain; linkers in the order of their positions; H or OH if unused. Positions of bridges follow the written chain, without caps; N, C: chain ends. Residues, ends and D or L forms follow the SMILES beside them. *: point of attachment. C20 diacid = O=C(O)CCCCCCCCCCCCCCCCCCC(=O)*; γGlu = O=C(O)[C@H](CCC(=O)[*:2])N[*:1]

Assays:
[1] = tested on: amylin receptor versus calcitonin receptor; details: cited from earlier work
[2] = Assay (I) efficacy testing on appetite (food intake), ad libitum fed rat model; format: in vivo, Sprague Dawley (SD) rats; details: 3 nmol/kg
Method in brief: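 Single ip, po or sc dosing (0.01-3 mg/kg, by body weight) at the start of the dark phase, in individually housed Sprague Dawley rats of 200-250 g with free food and water. Intake was logged per rat each hour to 7 h, then at 24 h (occasionally 48 h), against a vehicle group; outliers removed by Grubbs test.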

[3] = Assay (III) ThT fibrillation assay for physical stability; format: physicochemical; details: for Th T pH 4.0 lag time (h): 37° C., orbital shaking 960 rpm; for ThT pH 4.0 lag time: Table 9
Method in brief: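 Freshly prepared samples, pH adjusted with NaOH and HClO4 or HCl, received ThT at 1 μM final and were incubated at 37° C with orbital shaking at 960 rpm. Fluorescence (ex 444 nm, em 485 nm) was read every 20 minutes; […], with polypeptide concentration by reverse HPLC before and after.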

Compound	times more potent on the amylin receptor than on the calcitonin receptor [1]	times more potent on the amylin receptor than on the calcitonin receptor ([1]; listed as Pramlintide)	Food intake reduction 0-24 h 3 nmol/kg (%) [2]	Food intake reduction 24-48 h 3 nmol/kg (%) [2]	Th T pH 4.0 lag time (h) [3]	ThT pH 4.0 lag time [3]
pramlintide	14 times	approximately 14 times				
CC[C@H](C)[C@H](NC(=O)[C@@H]1CCCN1C(=O)CNC(=O)[C@H](Cc1ccccc1)NC(=O)[C@H](CC(N)=O)NC(=O)[C@H](CC(N)=O)NC(=O)[C@H](CO)NC(=O)[C@H](CO)NC(=O)[C@H](Cc1c[nH]cn1)NC(=O)[C@H](Cc1c[nH]cn1)NC(=O)[C@H](CC(C)C)NC(=O)[C@H](Cc1ccccc1)NC(=O)[C@H](CCC(=O)O)NC(=O)[C@H](C)NC(=O)[C@H](CC(C)C)NC(=O)[C@H](CCCNC(=N)N)NC(=O)[C@H](CCC(N)=O)NC(=O)[C@@H](NC(=O)[C@H](C)NC(=O)[C@@H]1CSSC[C@H](NC(=O)[C@H](CCCNC(=N)N)NC(=O)CC[C@H](NC(=O)CCCCCCCCCCCCCCCCCCC(=O)O)C(=O)O)C(=O)N[C@@H](CC(N)=O)C(=O)N[C@@H]([C@@H](C)O)C(=O)N[C@@H](C)C(=O)N[C@@H]([C@@H](C)O)C(=O)N1)[C@@H](C)O)C(=O)N[C@@H](CC(C)C)C(=O)N1CCC[C@H]1C(=O)N1CCC[C@H]1C(=O)N[C@H](C(=O)N[C@@H](CC(N)=O)C(=O)N[C@H](C(=O)NCC(=O)N[C@@H](CO)C(=O)N[C@@H](CC(N)=O)C(=O)N[C@H](C(=O)N1CCC[C@H]1C(N)=O)[C@@H](C)O)C(C)C)[C@@H](C)O [Example 96, N-alpha-[(S)-4-Carboxy-4-(19-carboxynonadecanoylamino)butyryl]-[Arg1, Glu14, His17, Pro37]-pramlintide] ({C20 diacid-γGlu}-RCNTATCATQRLAEFLHHSSNNFGPILPPTNVGSNTP-NH2; disulfide 2-7)			69%	89%	>45 h	>45 hr
CC[C@H](C)[C@H](NC(=O)[C@@H]1CCCN1C(=O)CNC(=O)[C@H](Cc1ccccc1)NC(=O)[C@H](CC(N)=O)NC(=O)[C@H](CC(N)=O)NC(=O)[C@H](CO)NC(=O)[C@H](CO)NC(=O)[C@H](Cc1c[nH]cn1)NC(=O)[C@H](CCCNC(=N)N)NC(=O)[C@H](CC(C)C)NC(=O)[C@H](Cc1ccccc1)NC(=O)[C@H](CCC(=O)O)NC(=O)[C@H](C)NC(=O)[C@H](CC(C)C)NC(=O)[C@H](CCCNC(=N)N)NC(=O)[C@H](CCC(N)=O)NC(=O)[C@@H](NC(=O)[C@H](C)NC(=O)[C@@H]1CSSC[C@H](NC(=O)[C@H](Cc2c[nH]cn2)NC(=O)CNC(=O)CC[C@H](NC(=O)CCCCCCCCCCCCCCCCCCC(=O)O)C(=O)O)C(=O)N[C@@H](CC(N)=O)C(=O)N[C@@H]([C@@H](C)O)C(=O)N[C@@H](C)C(=O)N[C@@H]([C@@H](C)O)C(=O)N1)[C@@H](C)O)C(=O)N[C@@H](CC(C)C)C(=O)N1CCC[C@H]1C(=O)N1CCC[C@H]1C(=O)N[C@H](C(=O)N[C@@H](CC(N)=O)C(=O)N[C@H](C(=O)NCC(=O)N[C@@H](CO)C(=O)N[C@@H](CC(N)=O)C(=O)N[C@H](C(=O)N1CCC[C@H]1C(N)=O)[C@@H](C)O)C(C)C)[C@@H](C)O [Example 89, N-alpha-[(S)-4-Carboxy-4-(19-carboxynonadecanoylamino)butyryl]-Gly-[His1, Glu14, Arg17, Pro37]-pramlintide] ({C20 diacid-γGlu}-GHCNTATCATQRLAEFLRHSSNNFGPILPPTNVGSNTP-NH2; disulfide 3-8)			42%	23%	>45 h	>45 hr
